Earlier results, collected in patent publication US20040006111A1, “Transmucosal delivery of proton pump inhibitors” (priority 2002, published 2004).

[1] = omeprazole buccal adhesive tablets (sodium alginate, HPMC, magnesium oxide, croscarmellose sodium), absorption through the buccal mucosa

- bioavailability (omeprazole buccal adhesive tablet formulation of Choi et al.): low
- peak plasma concentration [1]: 370 ng/mL
- time to generate peak plasma concentration [1]: 45 min
Structure (SMILES): COc1ccc2[nH]c([S+]([O-])Cc3ncc(C)c(OC)c3C)nc2c1 (stereo not drawn) [omeprazole]
